Assay results as given in US20240270821A1, “GIP/GLP1/GCG TRI-RECEPTOR AGONISTS AND USES THEREOF” (priority 2023, published 2024).
Where two headings read alike, the source gives them in different places. Starred links: 1 amine or outer side, 2 acyl side, 3 side chain; linkers in the order of their positions; H or OH if unused. Non-standard residues stand in square brackets, D forms with d. Residues, ends and D or L forms follow the SMILES beside them. Groups on a side chain read outwards from the residue. No end group written: not given here. *: point of attachment. C20 diacid = O=C(O)CCCCCCCCCCCCCCCCCCC(=O)*; C18 diacid = O=C(O)CCCCCCCCCCCCCCCCC(=O)*; αMePhe(2-F) = C[C@](N)(Cc1ccccc1F)C(=O)O; γGlu = O=C(O)[C@H](CCC(=O)[*:2])N[*:1]; αMe4Pal = C[C@](N)(Cc1ccncc1)C(=O)O; αMeY = C[C@](N)(Cc1ccc(O)cc1)C(=O)O; αMeF = C[C@](N)(Cc1ccccc1)C(=O)O; 4Pal = N[C@@H](Cc1ccncc1)C(=O)O; Aad = N[C@@H](CCCC(=O)O)C(=O)O; αMeL = CC(C)C[C@](C)(N)C(=O)O; αMeS = C[C@](N)(CO)C(=O)O; Orn = NCCC[C@H](N)C(=O)O; AEEA = NCCOCCOCC(=O)O; Aib = CC(C)(N)C(=O)O

Tests used:
Type in all cases: cell-based
[1] = target: T1, hGIPR (Homo sapiens, UniProt P48546); experiment: Functional cAMP activity in the presence of 1% HSA; conditions: read-out: cAMP Rel EC50, hGIPR
T1 sequence (P48546 22-466): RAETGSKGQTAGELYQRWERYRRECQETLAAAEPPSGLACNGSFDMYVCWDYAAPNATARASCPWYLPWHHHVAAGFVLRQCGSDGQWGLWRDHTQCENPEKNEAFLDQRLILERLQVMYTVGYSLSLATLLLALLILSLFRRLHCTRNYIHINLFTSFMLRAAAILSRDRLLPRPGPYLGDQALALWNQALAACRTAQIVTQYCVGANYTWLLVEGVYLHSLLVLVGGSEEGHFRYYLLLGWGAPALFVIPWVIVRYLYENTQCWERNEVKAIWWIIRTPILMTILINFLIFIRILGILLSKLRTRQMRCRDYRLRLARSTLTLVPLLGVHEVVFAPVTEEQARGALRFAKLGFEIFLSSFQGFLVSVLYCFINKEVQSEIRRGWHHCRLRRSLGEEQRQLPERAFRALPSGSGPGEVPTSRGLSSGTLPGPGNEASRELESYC

[2] = target: T2, hGLP-1R (Homo sapiens, UniProt P43220); experiment: Functional cAMP activity in the presence of 1% HSA; conditions: read-out: cAMP Rel EC50, hGLP-1R
[3] = target: human GcgR (Homo sapiens, UniProt P47871); experiment: Functional cAMP activity in the presence of 1% HSA; conditions: read-out: cAMP Rel EC50, hGcgR
[4] = target: T1, hGIPR; experiment: Functional cAMP activation in the presence of 0.1% casein (no HSA); conditions: read-out: Relative cAMP EC50, hGIPR;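 for Relative cAMP EC50, hGIPR: intracellular cAMP rise after 30 min at 37 °C read by HTRF against a standard curve, scaled between buffer alone (0%) and top control ligand concentration (100%), four-parameter fit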;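 for Relative cAMP EC50, hGLP-1R: intracellular cAMP rise after 30 min at 37 °C read by HTRF, normalized between buffer only (0%) and maximal control ligand (100%), four-parameter variable-slope fit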;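 for Relative cAMP EC50, hGcgR: intracellular cAMP rise after 30 min at 37 °C, read by HTRF against a cAMP standard curve, scaled from buffer only (0%) to maximal control ligand response (100%)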
[5] = target: T2, hGLP-1R; experiment: as above; conditions: read-out: Relative cAMP EC50, hGLP-1R
[6] = target: hGcgR (Homo sapiens, UniProt P47871); experiment: as above; conditions: read-out: Relative cAMP EC50, hGcgR;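 note: intracellular cAMP rise after 30 min at 37 °C, read by HTRF against a cAMP standard curve, scaled from buffer only (0%) to maximal control ligand response (100%)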
[7] = in the presence of 0.1% casein (no HSA), geometric mean
[8] = HEK-293 clonal cell line, in the presence of 1% HSA, geometric mean of relative EC50

T2 sequence (P43220 24-463): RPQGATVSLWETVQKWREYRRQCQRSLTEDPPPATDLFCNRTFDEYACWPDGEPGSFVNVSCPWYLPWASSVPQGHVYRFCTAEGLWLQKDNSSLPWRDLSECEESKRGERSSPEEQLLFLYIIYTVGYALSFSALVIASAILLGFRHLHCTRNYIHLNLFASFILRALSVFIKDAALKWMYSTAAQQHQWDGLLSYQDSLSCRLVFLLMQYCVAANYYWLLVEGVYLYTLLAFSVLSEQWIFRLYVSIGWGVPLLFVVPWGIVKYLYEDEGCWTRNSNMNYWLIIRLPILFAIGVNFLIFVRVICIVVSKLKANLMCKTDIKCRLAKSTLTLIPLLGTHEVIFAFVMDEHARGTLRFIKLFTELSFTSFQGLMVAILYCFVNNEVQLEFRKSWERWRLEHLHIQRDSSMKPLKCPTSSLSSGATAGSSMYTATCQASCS
Chain of hGcgR (P47871 26-477): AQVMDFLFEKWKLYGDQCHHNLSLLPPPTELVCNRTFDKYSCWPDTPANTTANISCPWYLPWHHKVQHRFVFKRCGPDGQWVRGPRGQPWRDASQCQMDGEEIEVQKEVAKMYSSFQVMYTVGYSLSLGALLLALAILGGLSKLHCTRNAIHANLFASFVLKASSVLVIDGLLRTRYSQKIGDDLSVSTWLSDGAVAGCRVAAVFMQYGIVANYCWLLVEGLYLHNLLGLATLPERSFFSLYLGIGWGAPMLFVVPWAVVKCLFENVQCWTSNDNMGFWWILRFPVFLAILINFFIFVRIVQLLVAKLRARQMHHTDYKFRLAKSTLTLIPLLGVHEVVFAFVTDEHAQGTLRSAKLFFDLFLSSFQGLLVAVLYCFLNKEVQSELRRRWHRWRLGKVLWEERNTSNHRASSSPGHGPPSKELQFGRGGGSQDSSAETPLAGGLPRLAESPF
Chain of human GcgR (P47871 26-477): as above

Row | Compound | EC50 [1] | EC50 [2] | EC50 [3] | EC50 [4, 7] | EC50 [5, 7] | EC50 [6, 7] | EC50 [4] | EC50 [5] | EC50 [6] | EC50 [1, 8] | EC50 [2, 8] | EC50 [3, 8]
1 | CC[C@H](C)[C@H](NC(=O)[C@H](Cc1ccccc1)NC(=O)[C@H](C)NC(=O)C(C)(C)NC(=O)[C@H](CCC(N)=O)NC(=O)[C@H](C)NC(=O)[C@H](CCCCNC(=O)COCCOCCNC(=O)CC[C@H](NC(=O)CCCCCCCCCCCCCCCCCCC(=O)O)C(=O)O)NC(=O)[C@H](CCCCN)NC(=O)[C@H](CC(=O)O)NC(=O)[C@H](CC(C)C)NC(=O)[C@](C)(CC(C)C)NC(=O)[C@H](CCCN)NC(=O)[C@H](CO)NC(=O)[C@H](Cc1ccccc1)NC(=O)[C@H](CC(=O)O)NC(=O)[C@H](CO)NC(=O)[C@@H](NC(=O)[C@H](Cc1ccccc1)NC(=O)[C@@H](NC(=O)CNC(=O)[C@H](CCC(N)=O)NC(=O)C(C)(C)NC(=O)[C@@H](N)Cc1ccc(O)cc1)[C@@H](C)O)[C@@H](C)O)C(=O)N[C@@H](CCC(=O)O)C(=O)N[C@@H](Cc1c[nH]c2ccccc12)C(=O)N[C@@H](CC(C)C)C(=O)N[C@@H](CC(C)C)C(=O)N[C@@H](CCC(=O)O)C(=O)NCC(=O)NCC(=O)N1CCC[C@H]1C(=O)N[C@@H](CO)C(=O)N[C@@H](CO)C(=O)NCC(=O)N[C@@H](C)C(=O)N1CCC[C@H]1C(=O)N1CCC[C@H]1C(=O)N1C[C@H](O)C[C@H]1C(=O)N[C@@H](CO)C(=O)NCC(=O)N[C@@H](CCC(=O)O)C(N)=O [Example 105] | 72.5 nM | 768 nM | 2790 nM | 0.269 nM | 2.86 nM | 12.5 nM |  |  |  |  |  | 
2 | CC[C@H](C)[C@H](NC(=O)[C@H](Cc1ccccc1)NC(=O)[C@H](C)NC(=O)C(C)(C)NC(=O)[C@H](CCC(N)=O)NC(=O)[C@H](C)NC(=O)[C@H](CCCCNC(=O)COCCOCCNC(=O)COCCOCCNC(=O)CC[C@H](NC(=O)CCCCCCCCCCCCCCCCCCC(=O)O)C(=O)O)NC(=O)[C@H](CCCCN)NC(=O)[C@H](CC(=O)O)NC(=O)[C@H](CC(C)C)NC(=O)[C@H](CC(C)C)NC(=O)[C@@H](NC(=O)[C@H](CO)NC(=O)[C@H](Cc1ccc(O)cc1)NC(=O)[C@H](CC(=O)O)NC(=O)[C@H](CO)NC(=O)[C@@H](NC(=O)[C@](C)(Cc1ccccc1F)NC(=O)[C@@H](NC(=O)CNC(=O)[C@H](CCC(N)=O)NC(=O)C(C)(C)NC(=O)[C@@H](N)Cc1ccc(O)cc1)[C@@H](C)O)[C@@H](C)O)[C@@H](C)CC)C(=O)N[C@@H](CCC(=O)O)C(=O)N[C@@H](Cc1ccc(O)cc1)C(=O)N[C@@H](CC(C)C)C(=O)N[C@@H](CC(C)C)C(=O)N[C@@H](CCC(=O)O)C(=O)NCC(=O)NCC(=O)N1CCC[C@H]1C(=O)N[C@@H](CO)C(=O)N[C@@H](CO)C(=O)NCC(=O)N[C@@H](C)C(=O)N1CCC[C@H]1C(=O)N1CCC[C@H]1C(=O)N1CCC[C@H]1C(=O)N[C@@H](CCC(=O)O)C(N)=O [Example 386] (H-Y[Aib]QGT[αMePhe(2-F)]TSDYSILLDKK([AEEA-AEEA-γGlu-C20 diacid])AQ[Aib]AFIEYLLEGGPSSGAPPPE-NH2) | 5.62 nM | 98.6 nM | 734 nM | 0.0156 nM | 0.278 nM | 1.7 nM |  |  |  |  |  | 
3 | Y[Aib]QGT[αMeF]TSD[4Pal][αMeS]I[αMeL]LD[Orn]K([γGlu-γGlu-C18 diacid])AQ[αMe4Pal]EFI[dE][αMeY]LIEGGPSSGAPPPSGGGE-NH2 [Example 1174] | 0.707 nM | 60.2 nM | 347 nM | 0.00896 nM | 0.454 nM | 2.58 nM |  |  |  |  |  | 
4 | CC[C@H](C)[C@H](NC(=O)[C@H](Cc1ccccc1)NC(=O)[C@H](C)NC(=O)C(C)(C)NC(=O)[C@H](CCC(N)=O)NC(=O)[C@H](C)NC(=O)[C@H](CCCCNC(=O)COCCOCCNC(=O)CC[C@H](NC(=O)CCCCCCCCCCCCCCCCC(=O)O)C(=O)O)NC(=O)[C@H](CCCCN)NC(=O)[C@H](CC(=O)O)NC(=O)[C@H](CC(C)C)NC(=O)[C@H](CC(C)C)NC(=O)[C@H](CCC(=O)O)NC(=O)[C@](C)(CO)NC(=O)[C@H](Cc1ccc(O)cc1)NC(=O)[C@H](CC(=O)O)NC(=O)[C@H](CO)NC(=O)[C@@H](NC(=O)[C@](C)(Cc1ccccc1F)NC(=O)[C@@H](NC(=O)CNC(=O)[C@H](CCC(N)=O)NC(=O)C(C)(C)NC(=O)[C@@H](N)Cc1ccc(O)cc1)[C@@H](C)O)[C@@H](C)O)C(=O)N[C@@H](CCC(=O)O)C(=O)N[C@@H](Cc1ccc(O)cc1)C(=O)N[C@@H](CC(C)C)C(=O)N[C@@H](CCC(=O)O)C(=O)N[C@@H](CCC(=O)O)C(=O)NCC(=O)NCC(=O)N1CCC[C@H]1C(=O)N[C@@H](CO)C(=O)N[C@@H](CO)C(=O)NCC(=O)N[C@@H](C)C(=O)N1CCC[C@H]1C(=O)N1CCC[C@H]1C(=O)N1CCC[C@H]1C(=O)N[C@@H](CCC(=O)O)C(N)=O [Example 467] (H-Y[Aib]QGT[αMePhe(2-F)]TSDY[αMeS]ELLDKK([AEEA-γGlu-C18 diacid])AQ[Aib]AFIEYLEEGGPSSGAPPPE-NH2) | 10.7 nM | 36.4 nM | 850 nM |  |  |  | 0.0855 nM | 0.358 nM | 9.34 nM |  |  | 
5 | CC[C@H](C)[C@H](NC(=O)[C@H](CO)NC(=O)[C@H](Cc1ccc(O)cc1)NC(=O)[C@H](CC(=O)O)NC(=O)[C@H](CO)NC(=O)[C@@H](NC(=O)[C@](C)(Cc1ccccc1F)NC(=O)[C@@H](NC(=O)CNC(=O)[C@H](CCC(N)=O)NC(=O)C(C)(C)NC(=O)[C@@H](N)Cc1ccc(O)cc1)[C@@H](C)O)[C@@H](C)O)C(=O)N[C@@H](CC(C)C)C(=O)N[C@@H](CC(C)C)C(=O)N[C@@H](CC(=O)O)C(=O)N[C@@H](CCCCN)C(=O)N[C@@H](CCCCNC(=O)CC[C@H](NC(=O)CC[C@H](NC(=O)CCCCCCCCCCCCCCCCC(=O)O)C(=O)O)C(=O)O)C(=O)N[C@@H](C)C(=O)N[C@@H](CCC(N)=O)C(=O)NC(C)(C)C(=O)N[C@@H](CCCC(=O)O)C(=O)N[C@@H](Cc1ccccc1)C(=O)N[C@H](C(=O)N[C@@H](CCC(=O)O)C(=O)N[C@@H](Cc1ccc(O)cc1)C(=O)N[C@@H](CC(C)C)C(=O)N[C@@H](CCC(=O)O)C(=O)N[C@@H](CCC(=O)O)C(=O)NCC(=O)NCC(=O)N1CCC[C@H]1C(=O)N[C@@H](CO)C(=O)N[C@@H](CO)C(=O)NCC(=O)N[C@@H](C)C(=O)N1CCC[C@H]1C(=O)N1CCC[C@H]1C(=O)N1CCC[C@H]1C(=O)N[C@@H](CO)C(N)=O)[C@@H](C)CC [Example 415] (H-Y[Aib]QGT[αMePhe(2-F)]TSDYSILLDKK([γGlu-γGlu-C18 diacid])AQ[Aib][Aad]FIEYLEEGGPSSGAPPPS-NH2) | 28.9 nM | 52.6 nM | 1090 nM |  |  |  | 0.0496 nM | 0.38 nM | 8.64 nM |  |  | 
6 | H-Y[Aib]QGT[αMePhe(2-F)]TSDYSI[αMeL]LD[Orn]K([AEEA-γGlu-C18 diacid])AQ[Aib]AFI[dE]YLLEGGPSSGAPPPSEG-NH2 [Example 404] | 2.03 nM | 32.2 nM | 735 nM |  |  |  | 0.0102 nM | 0.217 nM | 4.1 nM |  |  | 
7 | H-Y[Aib]QGT[αMePhe(2-F)]TSD[4Pal][αMeS]I[αMeL]LD[Orn]K([Glu-γGlu-C18 diacid])AQ[Aib][Orn]FI[dE][αMeY]LSEGGPSSGEPPPSGTE-NH2 [Example 563] | 11.8 nM | 98.7 nM | 1010 nM |  |  |  | 0.132 nM | 1.01 nM | 8.3 nM |  |  | 
8 | Y[Aib]QGTFTSD[4Pal]SQ[αMeL]LDKK([γGlu-γGlu-C18 diacid])AQ[αMe4Pal]AFIE[αMe4Pal]LIE[Aib]GPSSGAPPPSGEE-NH2 [Example 1121] |  |  |  | 0.115 nM | 5.23 nM | 8.83 nM |  |  |  | 4.55 nM | 165 nM | 566 nM
9 | H-Y[Aib]QGTFTSD[4Pal]SQ[αMeL]LDKK([γGlu-γGlu-C18 diacid])AQ[αMe4Pal]AFIE[αMe4Pal]LIE[Aib]GPSSGEPPPSGE-NH2 [Example 1123] | 3.89 nM | 191 nM | 441 nM | 0.101 nM | 4.47 nM | 5.53 nM |  |  |  |  |  | 
